The target of assay [1] is T1, PbdA (Rhodococcus jostii, UniProt Q0SCI3).
T1 sequence (Q0SCI3 1-400): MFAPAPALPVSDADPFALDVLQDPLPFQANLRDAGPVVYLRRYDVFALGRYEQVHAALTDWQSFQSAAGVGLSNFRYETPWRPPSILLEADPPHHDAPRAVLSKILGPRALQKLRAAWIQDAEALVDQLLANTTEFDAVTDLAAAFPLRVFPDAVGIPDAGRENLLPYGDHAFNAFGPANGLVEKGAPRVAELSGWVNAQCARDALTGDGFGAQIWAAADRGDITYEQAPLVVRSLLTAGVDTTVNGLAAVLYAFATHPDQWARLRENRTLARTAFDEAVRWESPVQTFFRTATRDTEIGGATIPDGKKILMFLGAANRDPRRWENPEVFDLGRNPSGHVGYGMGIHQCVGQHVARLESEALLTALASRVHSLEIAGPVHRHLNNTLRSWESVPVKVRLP
The assay can be described thus: Substrate binding to PbdA (WT) by type I spectral shift titration. On the set-up: hexaHis (N, cleaved yes); made in house; host or cells: PbdA: E. coli BL-21 λ (DE3); PbdB: Rhodococcus jostii RHA1. The procedure: The affinity of PbdA for various LDACs was measured by the type I spectral shift upon titration of aromatic compound (Fig. 2). This shift occurs as the compound displaces a water coordinated to the heme iron, initiating a spin state transition in the latter from a low spin, hexacoordinate, to a high spin, pentacoordinate form.
Figure 2 Substrate binding of PbdA. A, difference spectra of PbdA titrated with 1 to 50 μM p-MBA from the substrate-free enzyme. Darker colors indicate higher concentration of p-MBA. Spectra were collected after each addition of substrate to 1 μM enzyme in 20 mM Mops, I = 0.1 M, pH 7.2. B, binding isotherm of PbdA and p-MBA. The fitted curve represents a simple hyperbola. p-MBA, para-methoxybenzoate.
UV-visible spectroscopy was conducted with a Cary 60 spectrophotometer equipped with a thermostatted cuvette holder at 25 °C. Scans of purified proteins diluted in 20 mM Mops, I = 0.1 M, pH 7.2 were taken between 250 and 700 nm. Heme concentration was calculated as described previously ([35]). Carbon monoxide binding was determined by reduction of PbdA diluted in 20 mM Mops, I = 0.1 M, pH 7.2 as above by a few grains of […]. CO was bubbled into the reduced enzyme for approximately 60 s at a rate of one bubble per second. Dissociation constants (Kd) were determined by titration of ligands diluted into enzyme buffer from 1 M stocks prepared in dimethyl sulfoxide into PbdA diluted in 20 mM Mops, I = 0.1 M, pH 7.2. Spectra take upon addition of substrate were subtracted from the spectrum of the enzyme, and peak-to-trough distance was plotted by ligand concentration. Kd values were determined by fitting a hyperbolic equation to the data as described previously ([23], [36]). The proportion of high-spin heme iron was determined using the approximate peak-to-trough extinction coefficient (ε ≈ 100 mM^−1 cm^−1) ([36]).

The target in assay [2] is T1, PbdA. Conditions: WT PbdAB; for Coupling: ratio of aromatic turnover rate to NADH oxidation rate. The method, then:
We then measured coupling under optimum conditions for other substrates. […] Finally, we measured the apparent steady-state kinetic parameters of the PbdA reaction under conditions of maximal coupling (Fig. S4).
For activity measurements 0.25 to 1 μM of PbdA and PbdB were combined in a 200 μl cuvette in 20 mM Mops, pH 7.2 with substrate diluted in the same buffer. NADH was added to 350 μM to initiate the reaction. For HPLC analysis, enzymatic reactions were acidified by adding acetic acid to 10% final concentration, centrifuged (16,000×g for 10 min), and filtered through a 0.2 μm polytetrafluoroethylene membrane. Samples were run over a Luna 5 μm C18(2) 100 Å 150 × 3 mm column (Phenomenex) at 0.7 ml min^−1 by a Waters 2695 separation HPLC module. Samples were eluted with a 16.8 ml linear gradient from 1% methanol plus 0.1% formic acid in water to 100% methanol plus 0.1% formic acid and monitored at 280 nm with a Waters 2996 photodiode array detector. Concentrations were determined by interpolation on a standard curve of 0 to 1 mM of authentic standard. NADH concentration was measured by absorbance at 340 nm, ε = 6.22 mM^-1 cm^-1. Coupling was calculated from the ratio of rate of aromatic turnover, as determined by HPLC, and the rate of NADH oxidation, determined spectroscopically. Buffer ionic strength was adjusted by addition of NaCl, as appropriate. Apparent steady-state kinetic parameters were calculated by fitting Michaelis–Menten equations to initial velocity of reactions at various concentrations of aromatic substrate (LEONORA).

The next assay deals with CYP199A2. Details: method as in PMID 20024082. The following applies: cited from earlier work.

Read-outs that look alike come from different tables or passages of the source.

In the case of `COc1ccc(C(=O)O)cc1OC` [Veratrate, veratrate], the Kd on PbdA [1] stood at 18 µM. Besides, at PbdA [1] (WT PbdA, on substrate binding), the “%High-spin (percent of heme iron in high-spin state)” value worked out at 84%. The NADH depletion rate at PbdA [2] (air-saturated MOPS (I = 0.1 M), pH 7.2, 25 °C, SD in parentheses) is 2830 (50) U mg P450^-1. Further, at PbdA [2] (appearance of O-demethylated product (disappearance of p-EB), SD in parentheses), the “Rate of Aromatic turnover” value was 2030 (60) U mg P450^-1. Moreover, the Coupling was 72 (3) % on PbdA [2] and “approximately 75%” on PbdA [2] (listed as veratrate). Further, the Turnover of substrate result in the assay with CYP199A2 is “did not detectibly turn over”.

Usually Kd stands for the constant that tells how readily two partners part at equilibrium.
